In patent US20110274789A1, “ISOLATED LACTOBACILLUS PLANTARUM STRAIN INDUCIA DSM 21379 AS PROBIOTIC THAT ENHANCES NATURAL IMMUNITY AND FOOD PRODUCTS AND MEDICINAL PREPARATIONS COMPRISING IT” (priority 2008, published 2011):
Converted amounts (≈) assume the structure as drawn.

What was measured:
[1] = in vivo, po; cited from earlier work
[2] = system: Control strain L. plantarum DSM 21380; experiment: Antibiotic resistance, E-test MIC, control strain; type: cell-based, Lactobacillus plantarum; details: for MIC (minimal inhibitory concentration): E-test strips; for MIC: Lactiplantibacillus plantarum, DSM21380, E-test strips, read-out: MIC (minimal inhibitory concentration)
[3] = system: Lactobacillus plantarum Inducia DSM 21379; experiment: Antibiotic resistance, E-test MIC; type: cell-based; details: for MIC (minimal inhibitory concentration): E-test strips, L. plantarum Inducia DSM 21379; for MIC: Lactiplantibacillus plantarum, DSM21379, read-out: MIC (minimal inhibitory concentration)
Description: Method. Lactobacillus plantarum Inducia DSM 21379 was tested using antibiotic strips of the E-test (AB Biodisk, Solna).

Compound	consumed amount absorbed from intestine into bloodstream [1] [%]	MIC (minimal inhibitory concentration) [2] [µg/mL]	MIC (minimal inhibitory concentration) [3] [µg/mL]	MIC [2] [µg/mL]	MIC [3] [µg/mL]
NCCCCN [Putrescine]	20	–	–	–	–
Cipro/ofloxacin	–	32	32	–	–
CCC[C@@H]1C[C@@H](C(=O)N[C@@H]([C@H]2O[C@H](SC)[C@H](O)[C@@H](O)[C@H]2O)[C@H](C)Cl)N(C)C1 [Clindamycin]	–	–	–	0.032 (≈ 0.0753 µM)	0.016 (≈ 0.0376 µM)
Gentamicin	–	1.5	1	–	–
CC[C@H]1OC(=O)[C@H](C)[C@@H](O[C@H]2C[C@@](C)(OC)[C@@H](O)[C@H](C)O2)[C@H](C)[C@@H](O[C@@H]2O[C@H](C)C[C@H](N(C)C)[C@H]2O)[C@](C)(O)C[C@@H](C)C(=O)[C@H](C)[C@@H](O)[C@]1(C)O [Erytromycin]	–	0.19 (≈ 0.259 µM)	0.25 (≈ 0.341 µM)	–	–
[H]/N=C(/N)N[C@H]1[C@H](O)[C@@H](O)[C@H](O[C@@H]2O[C@@H](C)[C@](O)(C=O)[C@H]2O[C@@H]2O[C@@H](CO)[C@H](O)[C@@H](O)[C@@H]2NC)[C@@H](N/C(N)=N\[H])[C@@H]1O [Streptomycin]	–	–	–	16 (≈ 27.5 µM)	6 (≈ 10.3 µM)
CC1(C)S[C@@H]2[C@H](NC(=O)[C@H](N)c3ccccc3)C(=O)N2[C@H]1C(=O)O [Ampicillin]	–	–	–	0.25 (≈ 0.715 µM)	0.19 (≈ 0.544 µM)
O=C(N[C@H](CO)[C@H](O)c1ccc([N+](=O)[O-])cc1)C(Cl)Cl [Chloramphenicol]	–	–	–	2 (≈ 6.19 µM)	2 (≈ 6.19 µM)
CN(C)[C@@H]1C(O)=C(C(N)=O)C(=O)[C@@]2(O)C(O)=C3C(=O)c4c(O)cccc4[C@@](C)(O)[C@H]3C[C@@H]12 [Tetracycline]	–	–	–	8 (≈ 18 µM)	6 (≈ 13.5 µM)
